Experimental data published in ChEMBL document CHEMBL4295262, “Evaluation of the utility of stem-cell derived cardiomyocytes for drug proarrhythmic potential” (2019).

Key:
Conditions in all cases: human, ipsc-cm
[1] = (§1) Electrical activity assay on cell lines treated with a given drug. DMSO was used as a vehicle and a control, unblinded dofetilide was used as a control.; format: ADME, cell-based
[2] = as §1
[3] = as §1; remark: listed apart in the source
[4] = as §1; remark: listed apart in the source
[5] = as §1; format: ADME, cell-based; remark: listed apart in the source
[6] = as §1; remark: listed apart in the source
[7] = 0.03169 µM, concentration (um) 0.0316912 uM
[8] = 0.1001 µM, concentration (um) 0.100144 uM
[9] = 0.3165 µM, concentration (um) 0.316456 uM
[10] = 0.09507 µM, concentration (um) 0.0950736 uM
[11] = 0.3004 µM, concentration (um) 0.300433 uM
[12] = 0.9494 µM, concentration (um) 0.949367 uM
[13] = 0.001 µM, concentration (um) 0.001 uM
[14] = 0.01 µM, concentration (um) 0.01 uM
[15] = 0.1 µM, concentration (um) 0.1 uM
[16] = 0.003 µM, concentration (um) 0.003 uM
[17] = 0.03 µM, concentration (um) 0.03 uM
[18] = 0.3 µM, concentration (um) 0.3 uM

SMILES: O=C(CCCN1CC=C(n2c(=O)[nH]c3ccccc32)CC1)c1ccc(F)cc1 [DROPERIDOL]
- FPD measurement [1, 7]: 60.21 FPDc
- FPDc [1, 7]: 6 Values Out Of 6 Were Excluded Due To Quiescence Or 0 Fpdc
- FPD measurement [1, 8]: 132.5 FPDc
- FPDc [1, 8]: 6 Values Out Of 6 Were Excluded Due To Quiescence Or 0 Fpdc
- FPD measurement [1, 9]: 151.8 FPDc
- FPDc [1, 9]: 6 Values Out Of 6 Were Excluded Due To Quiescence Or 0 Fpdc
- FPD measurement ([1]; 1 µM, concentration (um) 1 uM): 41.51 FPDc
- FPDc ([1]; 1 µM, concentration (um) 1 uM): 6 Values Out Of 6 Were Excluded Due To Quiescence Or 0 Fpdc
- FPDc ([2]; 0.03169 µM): 71.23
- FPDc ([2]; 0.1001 µM): 90.23
- FPDc ([2]; 0.3165 µM): 123.3
- FPDc ([2]; 1 µM): More Than Half The Wells Had A Quiescence Event Or Fpdc Readings Of 0
- FPD measurement ([3]; 0.03169 µM): 1 Values Out Of 1 Were Excluded Due To Quiescence Or 0 Fpdc
- FPDc ([3]; 0.03169 µM): 1 Values Out Of 1 Were Excluded Due To Quiescence Or 0 Fpdc
- FPD measurement ([3]; 0.1001 µM): 1 Values Out Of 1 Were Excluded Due To Quiescence Or 0 Fpdc
- FPDc ([3]; 0.1001 µM): 1 Values Out Of 1 Were Excluded Due To Quiescence Or 0 Fpdc
- FPD measurement ([3]; 0.3165 µM): 1 Values Out Of 1 Were Excluded Due To Quiescence Or 0 Fpdc
- FPDc ([3]; 0.3165 µM): 1 Values Out Of 1 Were Excluded Due To Quiescence Or 0 Fpdc
- FPD measurement ([3]; 1 µM): 1 Values Out Of 1 Were Excluded Due To Quiescence Or 0 Fpdc
- FPDc ([3]; 1 µM): 1 Values Out Of 1 Were Excluded Due To Quiescence Or 0 Fpdc
- APDc ([4]; 0.03169 µM): 57.78
- FPD measurement ([4]; 0.03169 µM): 57.78 FPDc
- APDc ([4]; 0.1001 µM): 53.48
- FPD measurement ([4]; 0.1001 µM): 53.48 FPDc
- APDc ([4]; 0.3165 µM): 58.08
- FPD measurement ([4]; 0.3165 µM): 58.08 FPDc
- APDc ([4]; 1 µM): 67.51
- FPD measurement ([4]; 1 µM): 67.51 FPDc

SMILES: CN1CCN(C2=Nc3cc(Cl)ccc3Nc3ccccc32)CC1 [CLOZAPINE]
- FPD measurement [5, 10]: 5 Values Out Of 5 Were Excluded Due To Quiescence Or 0 Apdc
- FPDc [5, 10]: 25.04
- FPD measurement [5, 11]: 5 Values Out Of 5 Were Excluded Due To Quiescence Or 0 Apdc
- FPDc [5, 11]: 24.94
- FPD measurement [5, 12]: 5 Values Out Of 5 Were Excluded Due To Quiescence Or 0 Apdc
- FPDc [5, 12]: 25.07
- FPD measurement ([5]; 3 µM, concentration (um) 3 uM): 5 Values Out Of 5 Were Excluded Due To Quiescence Or 0 Apdc
- FPDc ([5]; 3 µM, concentration (um) 3 uM): 22.78
- FPDc ([2]; 0.09507 µM): 68.88
- FPD measurement ([2]; 0.3004 µM): 5 Values Out Of 5 Were Excluded Due To Quiescence Or 0 Apdc
- FPDc ([2]; 0.3004 µM): 59.23
- FPD measurement ([2]; 0.9494 µM): 5 Values Out Of 5 Were Excluded Due To Quiescence Or 0 Apdc
- FPDc ([2]; 0.9494 µM): 63.68
- FPDc ([2]; 3 µM): 65.29
- FPD measurement ([3]; 0.09507 µM): 1 Values Out Of 1 Were Excluded Due To Quiescence Or 0 Fpdc
- FPDc ([3]; 0.09507 µM): 1 Values Out Of 1 Were Excluded Due To Quiescence Or 0 Fpdc
- FPD measurement ([3]; 0.3004 µM): 1 Values Out Of 1 Were Excluded Due To Quiescence Or 0 Fpdc
- FPDc ([3]; 0.3004 µM): 1 Values Out Of 1 Were Excluded Due To Quiescence Or 0 Fpdc
- FPD measurement ([3]; 0.9494 µM): 1 Values Out Of 1 Were Excluded Due To Quiescence Or 0 Fpdc
- FPDc ([3]; 0.9494 µM): 1 Values Out Of 1 Were Excluded Due To Quiescence Or 0 Fpdc
- FPD measurement ([3]; 3 µM): 1 Values Out Of 1 Were Excluded Due To Quiescence Or 0 Fpdc
- FPDc ([3]; 3 µM): 1 Values Out Of 1 Were Excluded Due To Quiescence Or 0 Fpdc
- APDc ([4]; 0.09507 µM): 47.87
- FPD measurement ([4]; 0.09507 µM): 47.87 FPDc
- APDc ([4]; 0.3004 µM): 55.24
- FPD measurement ([4]; 0.3004 µM): 55.24 FPDc
- APDc ([4]; 0.9494 µM): 62.1
- FPD measurement ([4]; 0.9494 µM): 62.1 FPDc
- APDc ([4]; 3 µM): 73.69
- FPD measurement ([4]; 3 µM): 73.69 FPDc

SMILES: CC(C)(C)c1ccc(C(O)CCCN2CCC(C(O)(c3ccccc3)c3ccccc3)CC2)cc1 (stereo unspecified) [TERFENADINE]
- FPD measurement [1, 13]: 48.77 FPDc
- FPDc [1, 13]: 6 Values Out Of 6 Were Excluded Due To Quiescence Or 0 Fpdc
- FPD measurement [1, 14]: 52.11 FPDc
- FPDc [1, 14]: 6 Values Out Of 6 Were Excluded Due To Quiescence Or 0 Fpdc
- FPD measurement [1, 15]: 71.18 FPDc
- FPDc [1, 15]: 6 Values Out Of 6 Were Excluded Due To Quiescence Or 0 Fpdc
- FPDc ([1]; 1 µM, concentration (um) 1 uM): 6 Values Out Of 6 Were Excluded Due To Quiescence Or 0 Fpdc
- FPD measurement [5, 13]: 5 Values Out Of 5 Were Excluded Due To Quiescence Or 0 Apdc
- FPDc [5, 13]: 20.04
- FPD measurement [5, 14]: 5 Values Out Of 5 Were Excluded Due To Quiescence Or 0 Apdc
- FPDc [5, 14]: 19.19
- FPD measurement [5, 15]: 5 Values Out Of 5 Were Excluded Due To Quiescence Or 0 Apdc
- FPDc [5, 15]: 20.37
- FPD measurement ([5]; 1 µM, concentration (um) 1 uM): 5 Values Out Of 5 Were Excluded Due To Quiescence Or 0 Apdc
- FPDc ([5]; 1 µM, concentration (um) 1 uM): 19.11
- FPDc ([2]; 0.001 µM): 67.41
- FPDc ([2]; 0.01 µM): 65.79
- FPDc ([2]; 0.1 µM): 66.77
- FPDc ([2]; 1 µM): 63.51
- FPD measurement ([3]; 0.001 µM): 1 Values Out Of 1 Were Excluded Due To Quiescence Or 0 Fpdc
- FPDc ([3]; 0.001 µM): 1 Values Out Of 1 Were Excluded Due To Quiescence Or 0 Fpdc
- FPD measurement ([3]; 0.01 µM): 1 Values Out Of 1 Were Excluded Due To Quiescence Or 0 Fpdc
- FPDc ([3]; 0.01 µM): 1 Values Out Of 1 Were Excluded Due To Quiescence Or 0 Fpdc
- FPD measurement ([3]; 0.1 µM): 1 Values Out Of 1 Were Excluded Due To Quiescence Or 0 Fpdc
- FPDc ([3]; 0.1 µM): 1 Values Out Of 1 Were Excluded Due To Quiescence Or 0 Fpdc
- FPD measurement ([3]; 1 µM): 1 Values Out Of 1 Were Excluded Due To Quiescence Or 0 Fpdc
- FPDc ([3]; 1 µM): 1 Values Out Of 1 Were Excluded Due To Quiescence Or 0 Fpdc

SMILES: COC(=O)C1=C(C)NC(C)=C(C(=O)OC)C1c1ccccc1[N+](=O)[O-] [NIFEDIPINE]
- FPD measurement [5, 13]: 5 Values Out Of 5 Were Excluded Due To Quiescence Or 0 Apdc
- FPDc [5, 13]: 21.76
- FPD measurement [5, 14]: 5 Values Out Of 5 Were Excluded Due To Quiescence Or 0 Apdc
- FPDc [5, 14]: 17.1
- FPD measurement [5, 15]: More Than Half The Wells Had A Quiescence Event Or Apdc Readings Of 0
- FPDc [5, 15]: More Than Half The Wells Had A Quiescence Event Or Fpdc Readings Of 0
- FPD measurement ([5]; 1 µM, concentration (um) 1 uM): More Than Half The Wells Had A Quiescence Event Or Apdc Readings Of 0
- FPDc ([5]; 1 µM, concentration (um) 1 uM): More Than Half The Wells Had A Quiescence Event Or Fpdc Readings Of 0
- FPDc ([2]; 0.001 µM): 73.26
- FPDc ([2]; 0.01 µM): 70.54
- FPDc ([2]; 0.1 µM): 51.56
- FPDc ([2]; 1 µM): 21.94
- FPD measurement ([6]; 0.001 µM): 50.88 FPDc
- FPDc ([6]; 0.001 µM): 50.88
- FPD measurement ([6]; 0.01 µM): 43.95 FPDc
- FPDc ([6]; 0.01 µM): 43.95
- FPD measurement ([6]; 0.1 µM): 24.94 FPDc
- FPDc ([6]; 0.1 µM): 24.94
- FPD measurement ([6]; 1 µM): 16.23 FPDc
- FPDc ([6]; 1 µM): 16.23
- FPD measurement ([3]; 0.001 µM): 1 Values Out Of 1 Were Excluded Due To Quiescence Or 0 Fpdc
- FPDc ([3]; 0.001 µM): 1 Values Out Of 1 Were Excluded Due To Quiescence Or 0 Fpdc
- FPD measurement ([3]; 0.01 µM): 1 Values Out Of 1 Were Excluded Due To Quiescence Or 0 Fpdc
- FPDc ([3]; 0.01 µM): 1 Values Out Of 1 Were Excluded Due To Quiescence Or 0 Fpdc
- FPD measurement ([3]; 0.1 µM): 1 Values Out Of 1 Were Excluded Due To Quiescence Or 0 Fpdc
- FPDc ([3]; 0.1 µM): 1 Values Out Of 1 Were Excluded Due To Quiescence Or 0 Fpdc
- FPD measurement ([3]; 1 µM): 1 Values Out Of 1 Were Excluded Due To Quiescence Or 0 Fpdc
- FPDc ([3]; 1 µM): 1 Values Out Of 1 Were Excluded Due To Quiescence Or 0 Fpdc
- APDc ([4]; 0.001 µM): 59.3
- FPD measurement ([4]; 0.001 µM): 59.3 FPDc
- APDc ([4]; 0.01 µM): 57.63
- FPD measurement ([4]; 0.01 µM): 57.63 FPDc
- APDc ([4]; 0.1 µM): More Than Half The Wells Had A Quiescence Event Or Apdc Readings Of 0
- FPD measurement ([4]; 0.1 µM): More Than Half The Wells Had A Quiescence Event Or Apdc Readings Of 0
- APDc ([4]; 1 µM): More Than Half The Wells Had A Quiescence Event Or Apdc Readings Of 0
- FPD measurement ([4]; 1 µM): More Than Half The Wells Had A Quiescence Event Or Apdc Readings Of 0

SMILES: O=c1[nH]c2ccccc2n1CCCN1CCC(n2c(=O)[nH]c3cc(Cl)ccc32)CC1 [DOMPERIDONE]
- FPD measurement [1, 16]: 47.3 FPDc
- FPDc [1, 16]: 6 Values Out Of 6 Were Excluded Due To Quiescence Or 0 Fpdc
- FPD measurement [1, 17]: 85.58 FPDc
- FPDc [1, 17]: 6 Values Out Of 6 Were Excluded Due To Quiescence Or 0 Fpdc
- FPD measurement [1, 18]: 42.56 FPDc
- FPDc [1, 18]: 6 Values Out Of 6 Were Excluded Due To Quiescence Or 0 Fpdc
- FPDc ([1]; 3 µM, concentration (um) 3 uM): 6 Values Out Of 6 Were Excluded Due To Quiescence Or 0 Fpdc
- FPDc ([2]; 0.003 µM): 73.87
- FPDc ([2]; 0.03 µM): 88.38
- FPDc ([2]; 0.3 µM): More Than Half The Wells Had A Quiescence Event Or Fpdc Readings Of 0
- FPD measurement ([2]; 3 µM): More Than Half The Wells Had A Quiescence Event Or Apdc Readings Of 0
- FPDc ([2]; 3 µM): More Than Half The Wells Had A Quiescence Event Or Fpdc Readings Of 0
- APDc ([4]; 0.003 µM): 72.4
- FPD measurement ([4]; 0.003 µM): 72.4 FPDc
- APDc ([4]; 0.03 µM): 67
- FPD measurement ([4]; 0.03 µM): 67 FPDc
- APDc ([4]; 0.3 µM): 78.3
- FPD measurement ([4]; 0.3 µM): 78.3 FPDc
- APDc ([4]; 3 µM): More Than Half The Wells Had A Quiescence Event Or Apdc Readings Of 0
- FPD measurement ([4]; 3 µM): More Than Half The Wells Had A Quiescence Event Or Apdc Readings Of 0
